Results: publication PMC10180488, “Novel Derivatives of Eugenol as a New Class of PPARγ Agonists in Treating Inflammation: Design, Synthesis, SAR Analysis and In Vitro Anti-Inflammatory Activity” (Molecules, 2023)

Columns and labels:
human PPARγ- LBD = target: T1, human PPARγ- LBD (Homo sapiens, UniProt P37231); assay: Lanthascreen TR-FRET PPARγ competitive binding assay; conditions: for IC50: Lanthascreen TR-FRET competitive binding; for Raw Data / Raw Data - Background: TR-FRET
T1 construct: a mixture of a human PPARγ- LBD labelled with glutathione S-transferase (GST)
T1 sequence (P37231 238-503 limits assumed): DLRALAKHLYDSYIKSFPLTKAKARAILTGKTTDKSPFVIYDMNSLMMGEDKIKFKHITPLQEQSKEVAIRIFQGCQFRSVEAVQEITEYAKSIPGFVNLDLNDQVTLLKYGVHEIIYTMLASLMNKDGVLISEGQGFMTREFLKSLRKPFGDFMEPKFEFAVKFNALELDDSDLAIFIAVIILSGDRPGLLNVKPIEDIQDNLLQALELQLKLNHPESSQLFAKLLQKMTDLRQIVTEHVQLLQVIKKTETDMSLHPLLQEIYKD
Method: Using the Lanthasreen TR-FRET assay, the synthesized compounds were first preliminary tested for the PPARγ binding affinity. […] A chemical under test displaces the tracer from PPAR-LBD, which lowers the TR-FRET ratio and decreases the FRET signal Figure 8 [33].
A multimode low-volume proxy plate reader was used to read the plates after one hour of incubation. Then, a mixture of a human PPARγ- LBD labelled with glutathione S-transferase (GST), a fluorescent small pan-PPAR ligand (FluormoneTM Pan-PPAR Green), and terbium-labeled anti-GST antibody was added.

egg albumin = egg albumin (Gallus gallus, UniProt P01012); assay: Albumin denaturation assay; format: biochemical, hen; conditions: mean ± SD (n = 3), read-out: Percentage inhibition of denaturation of albumin
Sequence of egg albumin (P01012 2-386): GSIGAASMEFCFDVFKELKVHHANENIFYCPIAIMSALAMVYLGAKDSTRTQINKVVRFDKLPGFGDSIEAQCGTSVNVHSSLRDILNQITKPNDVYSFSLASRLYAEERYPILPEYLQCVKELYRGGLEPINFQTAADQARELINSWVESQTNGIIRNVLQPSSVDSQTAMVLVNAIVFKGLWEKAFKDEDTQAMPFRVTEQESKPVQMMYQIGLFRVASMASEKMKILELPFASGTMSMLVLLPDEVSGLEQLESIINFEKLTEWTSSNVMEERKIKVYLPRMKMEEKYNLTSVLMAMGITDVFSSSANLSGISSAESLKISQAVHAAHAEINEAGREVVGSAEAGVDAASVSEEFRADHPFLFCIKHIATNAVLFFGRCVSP
Method: Inflammation is accompanied by protein denaturation. Tissue protein denaturation is a well-established cause of Inflammatory illnesses. Inflammatory disorders including rheumatoid arthritis, diabetes, and cancer have been linked to the denaturation of proteins. The ability of a substance to stop proteins from becoming denaturized has a role in the prevention of inflammatory disorders. […] Denaturation of proteins is accomplished by keeping the reaction mixture in a water bath at 70 °C for […].
Minor modifications were made to Mizushima and Kobayashi’s and Sakat et al. methodologies. The reaction mixture containing 0.2 mL of egg albumin (from a fresh hen’s egg) is mixed with 2.8 mL of phosphate-buffered saline (PBS, pH 6.4) and 2 mL of synthesized compounds in varying concentrations. The mixture was then heated at 70 °C for 5 min after being incubated at 37 °C for approximately 15–20 min. After cooling, their absorbance was measured at 660 nm spectrometrically. Three duplicates of the experiment were carried out. […] Percentage inhibition = (OD control − OD sample/OD control) × 100

[1] = tested on: human red blood cells (HRBC); assay: HRBC membrane stabilization method; conditions: for HRBC membrane stabilization (percentage protection against HRBC lysis): mean ± SD (n = 3); for IC50: Homo sapiens, Erythrocyte, read-out: IC50 Values, HRBC membrane stabilization method
Method: The principle of this procedure is to stabilize the membrane of human red blood cells by hypotonic membrane lysis. […] Lysosomal enzyme levels typically decrease as the HRBC membrane is stabilized.
The packed cells in this blood solution were separated after centrifugation at 3000 rpm [41]. The packed cells were cleaned using an isosaline solution, and then, isosaline was used to prepare a 10% v/v suspension. This HRBC suspension was employed to estimate its anti-inflammatory properties. Different concentrations of the synthesized compounds and the reference standard were each combined with 1 mL of phosphate buffer (pH 7.4), 2 mL of hyposaline, and 0.5 mL of HRBC solution. A total of 2.0 mL of distilled water was utilized as the control. The assay mixtures were all centrifuged at 3000 rpm after 30 min of incubation at 37°C. The following formula was used to determine the percentage of stabilized HRBC membranes. Percentage protection= 100 − (OD sample/OD control) × 100

Structure (SMILES)	IC50 (human PPARγ- LBD) [µM]	Raw Data (human PPARγ- LBD; 0.0000512 µM) [RLU]	Raw Data - Background (human PPARγ- LBD; 0.0000512 µM) [RLU]	Raw Data (human PPARγ- LBD; 0.000256 µM) [RLU]	Raw Data - Background (human PPARγ- LBD; 0.000256 µM) [RLU]	Raw Data (human PPARγ- LBD; 0.00128 µM) [RLU]	Raw Data - Background (human PPARγ- LBD; 0.00128 µM) [RLU]	Raw Data (human PPARγ- LBD; 0.0064 µM) [RLU]	Raw Data - Background (human PPARγ- LBD; 0.0064 µM) [RLU]	Raw Data (human PPARγ- LBD; 0.032 µM) [RLU]	Raw Data - Background (human PPARγ- LBD; 0.032 µM) [RLU]	Raw Data (human PPARγ- LBD; 0.16 µM) [RLU]	Raw Data - Background (human PPARγ- LBD; 0.16 µM) [RLU]	Raw Data (human PPARγ- LBD; 0.8 µM) [RLU]	Raw Data - Background (human PPARγ- LBD; 0.8 µM) [RLU]	Raw Data (human PPARγ- LBD; 4 µM) [RLU]	Raw Data - Background (human PPARγ- LBD; 4 µM) [RLU]	Raw Data (human PPARγ- LBD; 20 µM) [RLU]	Raw Data - Background (human PPARγ- LBD; 20 µM) [RLU]	Raw Data (human PPARγ- LBD; 100 µM) [RLU]	also measured
C=CCc1ccc(OCC(=O)Nc2cccc(Cl)c2)c(OC)c1 [Compound 1e, 2-(4-Allyl-2-methoxyphenoxy)-N-(3-chlorophenyl)acetamide]	11.5	2.087	1.839	1.860	1.610	1.903	1.678	1.927	1.692	1.988	1.752	1.922	1.688	1.820	1.683	1.752	1.522	1.018	0.721	0.834	Raw Data - Background (human PPARγ- LBD; 100 µM): 0.586 RLU; inhibition at 6.25 µM (egg albumin): 5.49 ± 0.43%; inhibition at 12.5 µM (egg albumin): 9.47 ± 0.39%; inhibition at 25 µM (egg albumin): 15.7 ± 0.24%; inhibition at 50 µM (egg albumin): 22.35 ± 0.18%; inhibition at 100 µM (egg albumin): 38.61 ± 0.3%; inhibition at 200 µM (egg albumin): 48.21 ± 0.18%; inhibition at 400 µM (egg albumin): 56.62 ± 0.37%; HRBC membrane stabilization (percentage protection against HRBC lysis) ([1]; 6.25 µM): 12.36 ± 0.48%; HRBC membrane stabilization (percentage protection against HRBC lysis) ([1]; 12.5 µM): 19.68 ± 0.38%; HRBC membrane stabilization (percentage protection against HRBC lysis) ([1]; 25 µM): 34.50 ± 0.36%; HRBC membrane stabilization (percentage protection against HRBC lysis) ([1]; 50 µM): 42.00 ± 0.56%; HRBC membrane stabilization (percentage protection against HRBC lysis) ([1]; 100 µM): 51.04 ± 0.46%; HRBC membrane stabilization (percentage protection against HRBC lysis) ([1]; 200 µM): 66.05 ± 0.36%; HRBC membrane stabilization (percentage protection against HRBC lysis) ([1]; 400 µM): 75.09 ± 0.36%; IC50 [1]: 58.1 µM
C=CCc1ccc(OCC(=O)Nc2ccccc2Cl)c(OC)c1 [Compound 1f, 2-(4-Allyl-2-methoxyphenoxy)-N-(2-chlorophenyl)acetamide]	5.15	1.795	2.02	1.801	2.04	1.764	2	1.826	2.061	1.766	1.99	1.711	1.945	1.881	2.056	1.247	1.542	0.799	0.862	0.7757	Raw Data - Background (human PPARγ- LBD; 100 µM): 0.9427 RLU; inhibition at 6.25 µM (egg albumin): 7.74 ± 0.34%; inhibition at 12.5 µM (egg albumin): 13.6 ± 0.23%; inhibition at 25 µM (egg albumin): 24.4 ± 0.48%; inhibition at 50 µM (egg albumin): 31 ± 0.55%; inhibition at 100 µM (egg albumin): 43.08 ± 0.43%; inhibition at 200 µM (egg albumin): 50%; inhibition at 400 µM (egg albumin): 62.41 ± 0.42%; HRBC membrane stabilization (percentage protection against HRBC lysis) ([1]; 6.25 µM): 15.17 ± 0.64%; HRBC membrane stabilization (percentage protection against HRBC lysis) ([1]; 12.5 µM): 25.09 ± 0.66%; HRBC membrane stabilization (percentage protection against HRBC lysis) ([1]; 25 µM): 41.88 ± 0.55%; HRBC membrane stabilization (percentage protection against HRBC lysis) ([1]; 50 µM): 49.50 ± 0.46%; HRBC membrane stabilization (percentage protection against HRBC lysis) ([1]; 100 µM): 58.61 ± 0.38%; HRBC membrane stabilization (percentage protection against HRBC lysis) ([1]; 200 µM): 73.43 ± 0.36%; HRBC membrane stabilization (percentage protection against HRBC lysis) ([1]; 400 µM): 85.79 ± 0.18%; IC50 [1]: 55 µM
